Laboratory results published in ChEMBL document CHEMBL5500352, “ML162 derivatives incorporating a naphthoquinone unit as ferroptosis/apoptosis inducers: Design, synthesis, anti-cancer activity, and drug-resistance reversal evaluation” (Eur J Med Chem, 2024).
pIC50: −log10 of the molar value. The source made the active and inactive calls. No cut-off for these calls is given here.

Columns and labels:
HT-1080 [1] = assay: Cytotoxicity against human HT-1080 cells incubated for 48 hrs by CCK-8 assay; assay type: functional, cell-based; conditions: HT-1080, 48 h
HT-1080 [2] = assay: Induction of apoptosis in human HT-1080 cells assessed as increase in Bax level after 24 hrs by Western blotting analysis; assay type: functional, cell-based; conditions: dose 0.5-4 µM
HT-1080 [3] = assay: Induction of ferroptosis in human HT-1080 cells assessed as mitochondrial swelling at 4 uM after 24 hrs by transmission electron microscope analysis; assay type: functional, cell-based
HT-1080 [4] = assay: Induction of apoptosis in human HT-1080 cells assessed as late apoptotic cells at 2 uM incubated for 24 hrs by Annexin-V FITC/PI staining based flow cytometry analysis (reference value: 1.66%); assay type: functional
HT-1080 [5] = assay: Induction of ferroptosis in human HT-1080 cells assessed as accumulation of intracellular ROS level at 4 uM after 12 hrs by DCFH-DA staining based confocal laser scanning microscopy analysis; assay type: functional, cell-based
HT-1080 [6] = assay: Antitumor activity against human HT-1080 cells xenografted in BALB/c nude mouse assessed as tumor growth inhibition at 20 mg/kg, ip administered once daily for 19 days and measured every 2 days; assay type: functional, organism-based; conditions: time 19.0 day
HT-1080 [7] = assay: Induction of apoptosis in human HT-1080 cells assessed as early apoptotic cells at 1 uM incubated for 24 hrs by Annexin-V FITC/PI staining based flow cytometry analysis (reference value: 1.85%); assay type: functional
[8] = Toxicity in BALB/c nude mouse xenografted with human HT-1080 cells assessed as change in lung morphology at 20 to 40 mg/kg, ip administered once daily for 19 days and measured every 2 days by H and E staining based assay; assay type: organism-based; conditions: in vivo, 456 h, dose 20-40 mg/kg, time 19 day
HT-1080 [9] = assay: Induction of ferroptosis in human HT-1080 cells assessed as decrease in mitochondrial crests at 4 uM after 24 hrs by transmission electron microscope analysis; assay type: functional, cell-based
HT-1080 [10] = assay: Inhibition of cell migration in human HT-1080 cells incubated for 24 to 48 hrs by inverted microscope based wound healing assay; assay type: functional; conditions: dose 1-2 µM, time 24-48 hrs
[11] = Potentiation of AMG510 induced cytotoxicity in human AMG 510-resistant MIA PaCa-2 cells assessed as reduction in cell survival rate at 5 uM in presence of 10 nM AMG510 (reference value: 90%); assay type: functional
HT-1080 [12] = assay: Induction of ferroptosis in human HT-1080 cells assessed as appearance of broken outer membrane of mitochondria at 4 uM after 24 hrs by transmission electron microscope analysis; assay type: functional, cell-based
HT-1080 [13] = assay: Inhibition of colony formation in human HT-1080 cells incubated for 48 hrs followed by replacement with fresh media and measured after 12 days by crystal violet staining based assay; assay type: functional, cell-based; conditions: dose 1-2 µM
[14] = Toxicity in BALB/c nude mouse xenografted with human HT-1080 cells assessed as cellular inflammation at 20 to 40 mg/kg, ip administered once daily for 19 days and measured every 2 days by H and E staining based assay; assay type: organism-based; conditions: in vivo, 456 h, dose 20-40 mg/kg, time 19 day
HT-1080 [15] = assay: Antitumor activity against human HT-1080 cells xenografted in ip dosed BALB/c nude mouse assessed as tumor growth inhibition administered once daily for 19 days and measured every 2 days; assay type: functional, organism-based; conditions: dose 20-40 mg/kg, time 19.0 day
[16] = biological target: T1, Phospholipid hydroperoxide glutathione peroxidase GPX4 (Homo sapiens) (UniProt P36969); assay: Induction of GPX4 degradation in human HT-1080 cells at 2 uM after 24 hrs by Western blotting assay; assay type: cell-based
T1 sequence (whole entry): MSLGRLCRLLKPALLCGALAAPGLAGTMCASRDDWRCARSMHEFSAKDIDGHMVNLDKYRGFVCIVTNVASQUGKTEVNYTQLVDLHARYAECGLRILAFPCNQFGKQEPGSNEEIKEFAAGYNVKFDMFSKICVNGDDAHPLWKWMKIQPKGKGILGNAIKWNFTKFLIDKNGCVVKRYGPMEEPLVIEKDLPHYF

HT-1080 [17] = assay: Induction of apoptosis in human HT-1080 cells assessed as early apoptosis at 1 to 2 uM incubated for 48 hrs by Annexin-V FITC/PI staining based flow cytometry analysis; assay type: functional, cell-based; conditions: dose 1-2 µM

## O=C(CCCCCNC1=CC(=O)c2ccccc2C1=O)Nc1ccc(N(C(=O)CCl)C(C(=O)NCCc2ccccc2)c2cccs2)cc1 (configuration not stated)
HT-1080 [1]
  pIC50: 5.80
HT-1080 [2]
  Activity: Dose-Dependent Effect
HT-1080 [3]
  Activity: Active
HT-1080 [4]
  Activity: 4.75%
HT-1080 [5]
  Activity: Active
HT-1080 [6]
  Activity: Active
HT-1080 [7]
  Activity: 3.85%
[8]
  Activity: Non-Toxic
HT-1080 [9]
  Activity: Active
HT-1080 [10]
  inhibition: Dose-Dependent Effect
[11]
  Activity: ~10%
HT-1080 [12]
  Activity: Active
HT-1080 [13]
  inhibition: Dose-Dependent Effect
[14]
  Activity: Non-Toxic
HT-1080 [15]
  Activity: Dose-Dependent Effect
[16]
  Activity: Active
HT-1080 [17]
  Activity: Active
